Format in all cases: biochemical
The target in one experiment is T1, FXIIa (Homo sapiens, UniProt P00748).
T1 construct: FXIIa alpha
T1 sequence (P00748 373-615 limits assumed): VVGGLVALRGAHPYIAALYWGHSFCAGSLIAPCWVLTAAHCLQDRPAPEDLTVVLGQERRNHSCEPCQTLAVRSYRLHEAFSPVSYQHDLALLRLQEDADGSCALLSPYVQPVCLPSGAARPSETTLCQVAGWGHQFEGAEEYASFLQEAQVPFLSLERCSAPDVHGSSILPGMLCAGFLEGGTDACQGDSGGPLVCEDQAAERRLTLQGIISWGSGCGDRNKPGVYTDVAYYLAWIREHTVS
T1 sequence (P00748 20-372 partner limits assumed): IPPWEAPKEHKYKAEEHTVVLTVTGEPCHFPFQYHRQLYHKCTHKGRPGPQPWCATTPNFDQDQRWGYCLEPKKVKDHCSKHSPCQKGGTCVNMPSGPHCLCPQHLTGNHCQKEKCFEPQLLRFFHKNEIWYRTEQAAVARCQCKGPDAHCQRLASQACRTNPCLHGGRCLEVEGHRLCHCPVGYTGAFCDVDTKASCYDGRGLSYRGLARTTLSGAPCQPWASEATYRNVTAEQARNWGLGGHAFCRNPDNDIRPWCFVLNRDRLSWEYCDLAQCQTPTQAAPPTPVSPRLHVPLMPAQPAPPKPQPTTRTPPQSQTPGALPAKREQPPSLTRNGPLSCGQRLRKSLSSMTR
Nature of the experiment: Determination of Factor XIIa inhibition (chromogenic substrate S-2302). To be noted: human FXIIa alpha, Ki category. How it is done:
(§1) The activities of the compounds of the invention have been determined in vitro using the following assays protocols for the screening of activity of FXIIa and other proteases. Each of these assays were performed in a purified system employing the use of chromogenic assays in microplate plate wells. Chromogenic peptide substrates mimicking natural protein substrates are attached via an amide bond to a chromogenic group. Paranitroaniline (pNA) is released from the peptide following catalyses by the proteolytic enzyme; the absorbance increases and can be monitored at 405 nm.
(§2) All compounds were dissolved in 100% (v/v) DMSO to a stock concentration of 10 mM, the highest concentration of compound used in each assay is 500 μM. The final concentrations of DMSO were 5% (v/v) in 50 mM Tris 137 mM NaCl pH 7.4. Where no test compound was added a final concentration of 5% DMSO was employed.
Factor XIIa activity was measured using a chromogenic substrate S-2302 (Chromogenix). Various concentrations of compound were incubated with 10 nM of FXIIa and incubated at 37° C. for 10 minutes in 50 mM Tris, 137 mM NaCl, pH 7.4, prior to the addition of the chromogenic substrate S-2302 at a concentration equal the to the experimentally derived KM. Kinetic readings at 405 nm were monitored every 12 secs for a total duration of 3 hours at 37° C. Gradients of initial rates were determined and employed to calculate IC50 values.
The activity of the compounds of the invention has been categorised based on the Ki values, the categories being “†”, “*”, “**” and “***”. […] The category “**” refers to compounds with a Ki value of 0.2 μM to 0.8 μM.
(§3) Ki═IC50/(1+[Substrate]/Km)
(§4) Where [Substrate] denotes the concentration of substrate used in the assay and Km is the determined value of each enzyme with its own substrate.

The next experiment deals with FXa (Homo sapiens, UniProt P00742). Briefly: Determination of selectivity: FXa inhibition (chromogenic substrate S2765). The note with it: fold selectivity for FXIIa over FXa (human); category. How it is done: as §1, §2
(§5) To determine selectivity of test compounds, these test compounds were assayed for inhibitory activity against other serine proteases including FXa and thrombin. Essentially compounds at increasing concentrations were incubated with each enzyme: FXa (5 nM) and thrombin (5 nM), for 10 mins at 37° C. followed by the appropriate chromogenic substrate, S2765 (Chromogenix) and GPR (Bachem) respectively in 50 mM Tris, 137 mM NaCl, pH 7.4. Substrates were used at a concentration equal to the appropriate experimentally derived KM. Kinetic readings at 405 nm were monitored every 12 secs for a total duration of 3 hours at 37° C. Gradients of initial rates were determined and employed to calculate IC50 values. Values of IC50 were converted to Ki values based on the formula:
as §3, §4
The fold selectivity for FXIIa over FXa for the compounds of the invention has been categorised based on the fold selectivity values, the categories being “o”, “oo” and “ooo”. The category “o” refers to fold selectivity values less than 10 (e.g. a fold selectivity value of less than 10 and greater than 1). The category “oo” refers to a fold selectivity value of 10 to 100. The category “ooo” refers to fold selectivity values greater than 100.

The next experiment concerns the target T2, thrombin (Homo sapiens, UniProt P00734).
T2 construct: FXa (5 nM) and thrombin (5 nM)
Nature of the experiment: Determination of selectivity: thrombin inhibition (chromogenic substrate GPR). To be noted: fold selectivity for FXIIa over thrombin (human); category. On the procedure: as §1, §2, §5, §3, §4
The fold selectivity for FXIIa over thrombin for the compounds of the invention has been categorised based on the fold selectivity values, the categories being “+”, “++” and “+++”. The category “+” refers to fold selectivity values less than 10 (e.g. a fold selectivity value of less than 10 and greater than 1). The category “++” refers to a fold selectivity value of 10 to 100. The category “+++” refers to fold selectivity values greater than 100.

Bounds are passed on as bounds.

Chain of FXa (P00742 235-488 limits assumed): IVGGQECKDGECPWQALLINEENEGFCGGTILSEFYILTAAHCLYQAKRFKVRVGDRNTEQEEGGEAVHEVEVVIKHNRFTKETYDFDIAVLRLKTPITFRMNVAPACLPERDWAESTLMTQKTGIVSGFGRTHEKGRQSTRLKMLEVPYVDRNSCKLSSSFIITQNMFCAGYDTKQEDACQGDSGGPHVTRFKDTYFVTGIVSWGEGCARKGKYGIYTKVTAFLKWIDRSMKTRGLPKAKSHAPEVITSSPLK
Chain of FXa (P00742 41-179 partner limits assumed): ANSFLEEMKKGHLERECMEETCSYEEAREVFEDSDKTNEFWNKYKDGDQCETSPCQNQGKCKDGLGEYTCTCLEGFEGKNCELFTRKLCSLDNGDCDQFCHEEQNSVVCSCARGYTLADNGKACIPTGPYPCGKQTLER

A word on the Ki: it is the dissociation constant of the complex between target and ligand, obtained from inhibition or displacement. In turn, `Cc1ccc(C[C@@H]2C[C@@H](C(=O)NCc3ccc4c(cnn4C)c3)N(C(=O)[C@@H]3NCCC[C@@H]3C(=O)N3CCCCC3)C2)cc1` [Example M05733, (2S,4R)-N-((1-methyl-1H-indazol-5-yl)methyl)-4-(4-methylbenzyl)-1-((2R,3S)-3-(piperidine-1-carbonyl)piperidine-2-carbonyl)pyrrolidine-2-carboxamide] had a Ki on FXIIa of less than 200 nM. For the same compound, the “FXa (human)/FXIIa alpha (human)” value at FXa is on record as “∘∘∘”. The “Thrombin (human)/FXIIa alpha (human)” value on thrombin is given as “++ (a fold selectivity value of 10 to 100)”.
The corresponding values for `COCCN1CCC(N(C)C(=O)[C@H]2CCCN[C@H]2C(=O)N2C[C@H](Cc3ccc(C)cc3)C[C@H]2C(=O)NCc2ccc3c(cnn3C)c2)CC1` [Example M06084, (2R,3S)-N-(1-(2-methoxyethyl)piperidin-4-yl)-N-methyl-2-((2S,4R)-2-(((1-methyl-1H-indazol-5-yl)methyl)carbamoyl)-4-(4-methylbenzyl)pyrrolidine-1-carbonyl)piperidine-3-carboxamide] are less than 200 nM, “∘∘∘” and “+++ (fold selectivity values greater than 100)”.
The corresponding values for `Cc1ccc(C[C@@H]2C[C@@H](C(=O)NCc3ccc4c(cnn4C)c3)N(C(=O)[C@@H]3NCCC[C@@H]3C(=O)N3CCCN(C)CC3)C2)cc1` [Example M05840, (2S,4R)-1-((2R,3S)-3-(4-methyl-1,4-diazepane-1-carbonyl)piperidine-2-carbonyl)-N-((1-methyl-1H-indazol-5-yl)methyl)-4-(4-methylbenzyl)pyrrolidine-2-carboxamide] are less than 200 nM, “∘∘∘” and “+++ (fold selectivity values greater than 100)”.
The corresponding values for `Cc1ccc(C[C@@H]2C[C@@H](C(=O)NCc3ccc4c(cnn4C)c3)N(C(=O)[C@@H]3NCCC[C@@H]3C(=O)N(C)CCN3CC[C@H](F)C3)C2)cc1` [Example M06109, (2R,3S)-N-(2-((S)-3-fluoropyrrolidin-1-yl)ethyl)-N-methyl-2-((2S,4R)-2-(((1-methyl-1H-indazol-5-yl)methyl)carbamoyl)-4-(4-methylbenzyl)pyrrolidine-1-carbonyl)piperidine-3-carboxamide] are less than 200 nM, “∘∘∘” and “+++ (fold selectivity values greater than 100)”.
On to `Cn1nnc2cc(CNC(=O)[C@@H]3C[C@@H](CC4=CCC5(CC4)CC5)CN3C(=O)[C@@H]3NCCC[C@@H]3C(=O)N3CCCC3)ccc21` [Example M05991], for which the Ki at FXIIa is less than 200 nM. The “FXa (human)/FXIIa alpha (human)” value on FXa was “∘∘∘”. Besides, the “Thrombin (human)/FXIIa alpha (human)” value on thrombin is reported as “+++ (fold selectivity values greater than 100)”.
For `COc1ccc(CNC(=O)[C@@H]2C[C@@H](Cc3ccc(C)cc3)CN2C(=O)[C@@H]2NCCC[C@@H]2C(=O)N2CCCC2)cc1` [Example M05965, (2S,4R)-N-[(4-methoxyphenyl)methyl]-4-(p-tolylmethyl)-1-[(2R,3S)-3-(pyrrolidine-1-carbonyl)piperidine-2-carbonyl]pyrrolidine-2-carboxamide], in that order: no less than 5000 nM, “∘∘” and “++ (a fold selectivity value of 10 to 100)”.
The corresponding values for `Cn1ncc2cc(CNC(=O)[C@@H]3C[C@@H](Cc4ccncc4)CN3C(=O)[C@@H]3NCCC[C@@H]3C(=O)N3CCCC3)ccc21` [Example M05811, (2S,4R)-N-((1-methyl-1H-indazol-5-yl)methyl)-4-(pyridin-4-ylmethyl)-1-((2R,3S)-3-(pyrrolidine-1-carbonyl)piperidine-2-carbonyl)pyrrolidine-2-carboxamide] are 800 to 5000 nM, “∘∘∘” and “++ (a fold selectivity value of 10 to 100)”.
For `Cc1ccc(C=C2C[C@@H](C(=O)NCc3ccc4c(cnn4C)c3)N(C(=O)[C@@H]3NCCC[C@@H]3C(=O)N3CCCC3)C2)cc1` (single isomer, unassigned) [Example M05844], in that order: 800 to 5000 nM, “∘∘” and “++ (a fold selectivity value of 10 to 100)”.
Consider `CCO[C@H]1CCN(C(=O)[C@H]2CCCN[C@H]2C(=O)N2C[C@H](Cc3ccc(C)cc3)C[C@H]2C(=O)NCc2ccc3c(cnn3C)c2)C1` [Example M05853, (2S,4R)-1-((2R,3S)-3-((S)-3-ethoxypyrrolidine-1-carbonyl)piperidine-2-carbonyl)-N-((1-methyl-1H-indazol-5-yl)methyl)-4-(4-methylbenzyl)pyrrolidine-2-carboxamide], for which the Ki on FXIIa was less than 200 nM. The “FXa (human)/FXIIa alpha (human)” value on FXa is listed as “∘∘∘”. Moreover, the “Thrombin (human)/FXIIa alpha (human)” value on thrombin is listed as “+++ (fold selectivity values greater than 100)”.
For the compound `Cn1nnc2cc(CNC(=O)[C@@H]3C[C@@H](Cc4ccc(C(F)(F)F)nc4)CN3C(=O)[C@@H]3NCCC[C@@H]3C(=O)N3CCCC3)ccc21` [Example M05863, (2S,4R)-N-((1-methyl-1H-benzo[d][1,2,3]triazol-5-yl)methyl)-1-((2R,3S)-3-(pyrrolidine-1-carbonyl)piperidine-2-carbonyl)-4-((6-(trifluoromethyl)pyridin-3-yl)methyl)pyrrolidine-2-carboxamide], the Ki on FXIIa is less than 200 nM. The “FXa (human)/FXIIa alpha (human)” value on FXa is reported as “∘∘∘”. For the same compound, at thrombin, the “Thrombin (human)/FXIIa alpha (human)” value is given as “+++ (fold selectivity values greater than 100)”.
In turn, `Cc1ccc(C[C@@H]2C[C@@H](C(=O)NCc3cnc4[nH]cc(Cl)c4c3)N(C(=O)[C@@H]3NCCC[C@@H]3C(=O)N3CCCC3)C2)cc1` [Example M05899, (2S,4R)-N-((3-chloro-1H-pyrrolo[2,3-b]pyridin-5-yl)methyl)-4-(4-methylbenzyl)-1-((2R,3S)-3-(pyrrolidine-1-carbonyl)piperidine-2-carbonyl)pyrrolidine-2-carboxamide] showed a Ki at FXIIa of less than 200 nM. Further, the “FXa (human)/FXIIa alpha (human)” value at FXa is on record as “∘∘”. The “Thrombin (human)/FXIIa alpha (human)” value on thrombin is “+ (fold selectivity values less than 10 (e.g. a fold selectivity value of less than 10 and greater than 1))”.
Compound `Cc1ccc(C[C@@H]2C[C@@H](C(=O)NCc3ccc4c(cnn4C)c3)N(C(=O)[C@@H]3NCCC[C@@H]3C(=O)N(C)CCN3CCCC3)C2)cc1` [Example M06039, (2R,3S)-N-methyl-2-((2S,4R)-2-(((1-methyl-1H-indazol-5-yl)methyl)carbamoyl)-4-(4-methylbenzyl)pyrrolidine-1-carbonyl)-N-(2-(pyrrolidin-1-yl)ethyl)piperidine-3-carboxamide] returned an inhibition constant Ki at FXIIa of less than 200 nM. The “FXa (human)/FXIIa alpha (human)” value at FXa is listed as “∘∘∘”. Besides, at thrombin, the “Thrombin (human)/FXIIa alpha (human)” value is listed as “+++ (fold selectivity values greater than 100)”.

Source of the values: patent US20240294498A1, “FACTOR XIIA INHIBITORS” (Lunac Therapeutics Ltd, priority 2021, published 2024).
